Source: PMC7582876, “Antiproliferative Properties of a Few Auranofin-Related Gold(I) and Silver(I) Complexes in Leukemia Cells and their Interferences with the Ubiquitin Proteasome System” (Molecules, 2020)

Experiments:
Assay type in all cases: biochemical
[1] = target: T1, trypsin-like (T-L) activity of human 20S proteasome (Homo sapiens, UniProt Q99436); assay: Inhibition of trypsin-like activity of 20S proteasome (Boc-Leu-Arg-Arg-AMC); settings: for IC50: 10 min, no pre-incubation, 30 °C; for T-L inhibition at 10 µM: over 10 min
T1 construct: 20S proteasome, isolated and purified from human erythrocytes; purchased Biomol GmbH, Hamburg, Germany; host or cells: human erythrocytes (native complex)
Protocol: 20S proteasome, isolated and purified from human erythrocytes, was obtained from a commercial source (Biomol GmbH, Hamburg, Germany), as well as the peptidic substrates (Bachem, Bubendorf, Switzerland) Suc-Leu-Leu-Val-Tyr-AMC, Boc-Leu-Arg-Arg-AMC and Cbz-Leu-Leu-Glu-AMC for ChT-L, T-L and PGPH (C-L) activity of the enzyme, respectively. The three distinct proteolytic activities of the 20S proteasome were measured by monitoring the hydrolysis of the substrates and detecting the fluorescence of the common product released, i.e., 7-amino-4-methyl coumarin (7-AMC), by means of an Infinite 200 PRO microplate reader (Tecan, Männedorf, Switzerland) at 30 °C with a 380-nm excitation filter and a 460-nm emission filter. All gold and silver complexes were tested against the three proteolytic activities of the 20S proteasome and against Cat-B, Cat-L and bovine pancreatic α-chymotrypsin at 10 µM concentrations over a period of 10 min using an equivalent amount of DMSO as a negative control. […] The IC50 values were calculated with the program GraFit® using the two-parameter equation. More detailed experimental protocols for the assays against each proteolytic activity of the 20S proteasome, as well as against bovine pancreatic α-chymotrypsin, are already reported elsewhere (see also Supplementary Materials). Cat-B and Cat-L were purchased from Calbiochem, Darmstadt, Germany, and the related assays were performed as previously described. The employed fluorogenic substrate for both cysteine proteases was Cbz-Phe-Arg-AMC (80 µM for Cat-B; 5 µM for Cat-L). […]
Inhibition assay for the Tryptic Activity of the 20S Proteasome
mg∙mL−1 with the test compound present at 10 µM (screening assay) or at variable
concentrations (continuous assay). The reaction buffer consisted of 50 mM Tris buffer pH
substrate hydrolysis ([…]) was monitored continuously over a period of 10 min. […]

[2] = tested on: human cathepsin-L (Cat-L); assay: Cathepsin-L inhibition screening; settings: over 10 min
Protocol: 20S proteasome, isolated and purified from human erythrocytes, was obtained from a commercial source (Biomol GmbH, Hamburg, Germany), as well as the peptidic substrates (Bachem, Bubendorf, Switzerland) Suc-Leu-Leu-Val-Tyr-AMC, Boc-Leu-Arg-Arg-AMC and Cbz-Leu-Leu-Glu-AMC for ChT-L, T-L and PGPH (C-L) activity of the enzyme, respectively. The three distinct proteolytic activities of the 20S proteasome were measured by monitoring the hydrolysis of the substrates and detecting the fluorescence of the common product released, i.e., 7-amino-4-methyl coumarin (7-AMC), by means of an Infinite 200 PRO microplate reader (Tecan, Männedorf, Switzerland) at 30 °C with a 380-nm excitation filter and a 460-nm emission filter. All gold and silver complexes were tested against the three proteolytic activities of the 20S proteasome and against Cat-B, Cat-L and bovine pancreatic α-chymotrypsin at 10 µM concentrations over a period of 10 min using an equivalent amount of DMSO as a negative control. […]. The IC50 values were calculated with the program GraFit® using the two-parameter equation. More detailed experimental protocols for the assays against each proteolytic activity of the 20S proteasome, as well as against bovine pancreatic α-chymotrypsin, are already reported elsewhere (see also Supplementary Materials). Cat-B and Cat-L were purchased from Calbiochem, Darmstadt, Germany, and the related assays were performed as previously described. The employed fluorogenic substrate for both cysteine proteases was Cbz-Phe-Arg-AMC (80 µM for Cat-B; 5 µM for Cat-L). […]
Assay for Cathepsin-B and Cathepsin-L Inhibition
Assays were performed at 25 °C in a 20 mM Tris-HCl buffer, pH 6.0, containing 5 mM
EDTA, 2.5 mM DTT, 200 mM NaCl, 0.005% Brij 35 in a total volume of 285 µL. Substrate
(Cbz-Phe-Arg-AMC for both enzymes) and inhibitor stock solutions were prepared in
DMSO (10% final concentration) and were diluted with assay buffer; enzymes were held
for CB (recombinant, human liver). Inhibitors were used at concentrations between 0.35
µM and 140 µM. Product release from substrate hydrolysis was determined over a period

[3] = target: T2, human cathepsin-B (Cat-B) (Homo sapiens, UniProt P07858); assay: Cathepsin-B inhibition screening; settings: over 10 min
T2 construct: purchased Calbiochem, Darmstadt, Germany; host or cells: recombinant
Protocol: The IC50 values were calculated with the program GraFit® using the two-parameter equation. More detailed experimental protocols for the assays against each proteolytic activity of the 20S proteasome, as well as against bovine pancreatic α-chymotrypsin, are already reported elsewhere (see also Supplementary Materials). Cat-B and Cat-L were purchased from Calbiochem, Darmstadt, Germany, and the related assays were performed as previously described. […] Assay for Bovine Pancreatic α-Chymotrypsin Inhibition The enzyme ([…]) was incubated at 20 °C with the test compound present at 10 μM (screening assay). The reaction buffer consisted of 50 mM Tris buffer pH 8.0 containing 100 mM NaCl, 5 mM EDTA and 7.5% DMSO. Product release from substrate hydrolysis ([…] final concentration, Suc-[…] from Bachem) was determined over a period of 10 min. Assay for Cathepsin-B and Cathepsin-L Inhibition Assays were performed at 25 °C in a 20 mM Tris-HCl buffer, pH 6.0, containing 5 mM […] Substrate (Cbz-Phe-Arg-AMC for both enzymes) and inhibitor stock solutions were prepared in DMSO (10% final concentration) and were diluted with assay buffer; enzymes were held in buffer. The final substrate concentration for inhibition assays was between 10.0 and 81.0 […] for CB (recombinant, human liver). […] μM and 140 μM. Product release from substrate hydrolysis was determined over a period of 10 min.

Structure (SMILES)	IC50 [1]	Cat-L Inhibition (%) at 10 µM [2]	Cat-B Inhibition (%) at 10 µM [3]	T-L inhibition at 10 µM [1]
CC[PH](CC)(CC)[Ag][Br] [Ag(PEt3)Br]	2650 ± 150 nM	n.i.	n.i.	–
CC[PH](CC)(CC)[Ag][Cl] [Ag(PEt3)Cl]	2200 ± 1300 nM	n.i.	n.i.	–
CC[PH](CC)(CC)[Ag][I] [Ag(PEt3)I]	2270 ± 780 nM	n.i.	n.i.	–
CCP(CC)CC.[Br][Au] [Au(PEt3)Br]	1260 ± 120 nM	n.i.	31 ± 2.2%	–
CCP(CC)CC.[Au+].[Cl-] [Au(PEt3)Cl]	1250 ± 50 nM	n.i.	29 ± 0.2%	–
CC[P](CC)(CC)[Au][I] [Au(PEt3)I]	5800 ± 300 nM	n.i.	29 ± 1.7%	–
CCP(CC)CC.CCP(CC)CC.O=[N+]([O-])[O-].[Ag+] [[Ag(PEt3)2]NO3]	–	20 ± 0.4%	n.i.	n.i.
CC(=O)OC[C@H]1O[C@@H]([S-])[C@H](OC(C)=O)[C@@H](OC(C)=O)[C@@H]1OC(C)=O.CCP(CC)CC.[Au+] [auranofin, Auranofin]	–	n.i.	n.i.	n.i.
